Source: patent EP2138545B1, “USE OF PORPHYRAZINE DERIVATIVE AS SEMICONDUCTOR” (Hiroshima University, priority 2007, dated 2008)
In brackets after ≈: the same amount, converted by molar mass. Where two headings read alike, the source gives them in different places.

Assay: Measurement of solubility in chloroform and in dichloromethane (solvent added by 0.1 mL until the whole amount dissolved)
Type: physicochemical
Details: for solubility: organic solvent or mixture, thermodynamic from solid
Description: Respective compounds indicated by "6" and "7" were subjected to measurements of solubility in chloroform and in dichloromethane. In the measurements, approximately 3mg of a compound was prepared in advance by a precise weighing. Then, a solvent was added by 0.1mL to the compound and thereafter stirred or subjected to ultrasonic agitation. The solubility (mg/mL) was determined from an amount of the solvent used in dissolving a whole amount of the compound.

| solubility (solvent chloroform, read-out: solubility in chloroform) [µg/mL] | solubility (solvent dichloromethane, read-out: solubility in dichloromethane) [µg/mL] | solubility in dichloromethane (solvent dichloromethane) [µg/mL] | Compound | solubility in chloroform (solvent chloroform) [µg/mL] |
| --- | --- | --- | --- | --- |
| – | – | – | CCCCCCc1cc2c(s1)-c1nc-2nc2[nH]c(nc3nc(nc4[nH]c(n1)c1cc(CCCCCC)sc41)-c1cc(CCCCCC)sc1-3)c1cc(CCCCCC)sc21 [compound 6, Tetra(hexylthieno)porphyrazine] | 29000 (≈ 33100 µM) |
| < 20 | < 20 | – | c1cc2c(s1)-c1nc-2nc2[nH]c(nc3nc(nc4[nH]c(n1)c1ccsc41)-c1ccsc1-3)c1ccsc21 [unsubstituted phthalocyanine derivative, reference compound] | – |
| – | – | 10000 | CCCCCCc1cc2c(s1)C1=NC2=Nc2c3sc(CCCCCC)cc3c3[n]2[Cu][n]2c(c4cc(CCCCCC)sc4c2=NC2=NC(=N3)c3sc(CCCCCC)cc32)=N1 [compound 7, Copper (II) complex] | 11000 |
